Active and inactive are the calls of the source. The calls are words filed in the database; no cut-off is given here.
Experiments:
Mus musculus [1] = experiment: Anticonvulsant activity in Mus musculus Swiss albino (mouse) assessed as protection against pentylenetetrazole-induced seizure at 300 mg/kg, ip; assay type: functional, organism-based; set-up: dose 300 mg/kg
Mus musculus [2] = experiment: Anticonvulsant activity in Mus musculus Swiss albino (mouse) assessed as protection against strychnine-induced seizure at 300 mg/kg, ip; assay type: functional, organism-based; set-up: dose 300 mg/kg
Rattus norvegicus [3] = experiment: Anticonvulsant activity in Rattus norvegicus Wistar (rat) assessed as protection against maximal electroshock-induced seizure at 30 mg/kg, po measured at 0.5 hr; assay type: functional, organism-based; set-up: dose 30 mg/kg
Rattus norvegicus [4] = experiment: Anticonvulsant activity in Rattus norvegicus Wistar (rat) assessed as protection against maximal electroshock-induced seizure at 30 mg/kg, po measured at 1 hr; assay type: functional, organism-based; set-up: dose 30 mg/kg
Rattus norvegicus [5] = experiment: Anticonvulsant activity in Rattus norvegicus Wistar (rat) assessed as protection against maximal electroshock-induced seizure at 30 mg/kg, po measured at 2 hr; assay type: functional, organism-based; set-up: dose 30 mg/kg
Mus musculus [6] = experiment: Anticonvulsant activity in ip dosed Mus musculus Swiss albino (mouse) assessed as protection against maximal electroshock-induced seizure; assay type: functional
Mus musculus [7] = experiment: Anticonvulsant activity in ip dosed Mus musculus Swiss albino (mouse) assessed as protection against maximal electroshock-induced seizure at 4 hr; assay type: functional; conditions: read-out: MED
Mus musculus [8] = experiment: Anticonvulsant activity in Mus musculus Swiss albino (mouse) assessed as protection against pentylenetetrazole-induced seizure at 300 mg/kg, ip measured at 0.5 hr; assay type: functional, organism-based; set-up: dose 300 mg/kg
Mus musculus [9] = experiment: Anticonvulsant activity in ip dosed Mus musculus Swiss albino (mouse) assessed as protection against maximal electroshock-induced seizure at 0.5 hr; assay type: functional; conditions: read-out: MED
[10] = Protection index, ratio TD50 for neurotoxicity to ED50 for protection against maximal electroshock-induced seizure in Mus musculus Swiss albino (mouse); assay type: toxicity, organism-based; conditions: in vivo, read-out: Ratio TD50/ED50
Rattus norvegicus [11] = experiment: Anticonvulsant activity in Rattus norvegicus Wistar (rat) assessed as protection against maximal electroshock-induced seizure at 30 mg/kg, po measured at 4 hr; assay type: functional, organism-based; set-up: dose 30 mg/kg
Mus musculus [12] = experiment: Neurotoxicity against ip dosed Mus musculus Swiss albino (mouse) at 0.5 hr by rota rod test; assay type: toxicity, organism-based; conditions: in vivo
Rattus norvegicus [13] = experiment: Anticonvulsant activity in Rattus norvegicus Wistar (rat) assessed as protection against maximal electroshock-induced seizure at 30 mg/kg, po measured at 0.25 hr; assay type: functional, organism-based; set-up: dose 30 mg/kg
[14] = Neurotoxicity against ip dosed Mus musculus Swiss albino (mouse) by rota rod test; assay type: toxicity, organism-based; conditions: in vivo
Mus musculus [15] = experiment: Anticonvulsant activity in Mus musculus Swiss albino (mouse) assessed as protection against pentylenetetrazole-induced seizure at 300 mg/kg, ip measured at 4 hr; assay type: functional, organism-based; set-up: dose 300 mg/kg
Mus musculus [16] = experiment: Neurotoxicity against ip dosed Mus musculus Swiss albino (mouse) at 4 hr by rota rod test; assay type: toxicity, organism-based; conditions: in vivo
Mus musculus [17] = experiment: Anticonvulsant activity in Mus musculus Swiss albino (mouse) assessed as protection against strychnine-induced seizure at 300 mg/kg, ip measured at 0.5 hr; assay type: functional, organism-based; set-up: dose 300 mg/kg
Mus musculus [18] = experiment: Anticonvulsant activity in Mus musculus Swiss albino (mouse) assessed as protection against strychnine-induced seizure at 300 mg/kg, ip measured at 4 hr; assay type: functional, organism-based; set-up: dose 300 mg/kg
Mus musculus [19] = experiment: Neurotoxicity against Mus musculus Swiss albino (mouse) at 300 mg/kg, ip measured at 4 hr by rota rod test; assay type: toxicity, organism-based; set-up: dose 300 mg/kg, route intraperitoneal; conditions: in vivo
Mus musculus [20] = experiment: Anticonvulsant activity in ip dosed Mus musculus Swiss albino (mouse) assessed as protection against strychnine-induced seizure; assay type: functional
Mus musculus [21] = experiment: Anticonvulsant activity in ip dosed Mus musculus Swiss albino (mouse) assessed as protection against strychnine-induced seizure at 0.5 hr; assay type: functional; conditions: read-out: MED
Mus musculus [22] = experiment: Anticonvulsant activity in ip dosed Mus musculus Swiss albino (mouse) assessed as protection against strychnine-induced seizure at 4 hr; assay type: functional; conditions: read-out: MED
Mus musculus [23] = experiment: Anticonvulsant activity in ip dosed Mus musculus Swiss albino (mouse) assessed as protection against pentylenetetrazole-induced seizure; assay type: functional
Mus musculus [24] = experiment: Anticonvulsant activity in ip dosed Mus musculus Swiss albino (mouse) assessed as protection against pentylenetetrazole-induced seizure at 4 hr; assay type: functional; conditions: read-out: MED
Mus musculus [25] = experiment: Anticonvulsant activity in ip dosed Mus musculus Swiss albino (mouse) assessed as protection against pentylenetetrazole-induced seizure at 0.5 hr; assay type: functional; conditions: read-out: MED
Mus musculus [26] = experiment: Neurotoxicity against Mus musculus Swiss albino (mouse) at 300 mg/kg, ip measured at 0.5 hr by rota rod test; assay type: toxicity, organism-based; set-up: dose 300 mg/kg, route intraperitoneal; conditions: in vivo

SMILES | Activity (Mus musculus [1]) | Activity (Mus musculus [2]) | Activity (Rattus norvegicus [3]) | Activity (Rattus norvegicus [4]) | Activity (Rattus norvegicus [5]) | ED50 (Mus musculus [6]) [mg/kg] | minimal effective dose (Mus musculus [7]) [mg/kg] | Activity (Mus musculus [8]) | minimal effective dose (Mus musculus [9]) [mg/kg] | selectivity ratio [10] | Activity (Rattus norvegicus [11]) | MTC (Mus musculus [12]) [mg/kg] | Activity (Rattus norvegicus [13]) | TD50 [14] [mg/kg] | Activity (Mus musculus [15]) | MTC (Mus musculus [16]) [mg/kg] | Activity (Mus musculus [18]) | Activity (Mus musculus [19]) | ED50 (Mus musculus [20]) [mg/kg] | minimal effective dose (Mus musculus [21]) [mg/kg] | further results
C(=C\c1ccccc1)/C=N/Cc1cccnc1 | inactive | inactive | inactive | inactive | inactive | 36.3 | 300 | inactive | 30 | 2.34 | inactive | 100 | Active | 84.8 | inactive | 100 | inactive | – | – | – | Activity (Mus musculus [17]): inactive
Clc1ccccc1/C=N/Cc1cccnc1 | inactive | – | Active | Active | Active | 11.7 | 30 | inactive | 30 | 17.3 | Active | 300 | Active | 202 | inactive | – | – | Non-toxic | 93.6 | 100 | minimal effective dose (Mus musculus [22]): 100 mg/kg
COc1cc(/C=N/Cc2cccnc2)ccc1O | – | – | inactive | Active | Active | 53 | 30 | – | 100 | 3.31 | Active | 300 | inactive | 176 | – | – | – | Non-toxic | 14.2 | 30 | ED50 (Mus musculus [23]): 6.44 mg/kg; minimal effective dose (Mus musculus [24]): 30 mg/kg; minimal effective dose (Mus musculus [25]): 30 mg/kg; minimal effective dose (Mus musculus [22]): 30 mg/kg
C/C(=N\Cc1cccnc1)c1ccccc1 | – | inactive | inactive | Active | Active | 55.7 | 30 | – | 100 | > 10 | Active | – | inactive | > 500 | – | – | inactive | Non-toxic | – | – | ED50 (Mus musculus [23]): 23.2 mg/kg; Activity (Mus musculus [26]): Non-toxic; minimal effective dose (Mus musculus [24]): 30 mg/kg; minimal effective dose (Mus musculus [25]): 30 mg/kg; Activity (Mus musculus [17]): inactive
c1ccc(C(=NCc2cccnc2)c2ccccc2)cc1 | inactive | inactive | Active | Active | inactive | 9.13 | 30 | inactive | 30 | > 10 | Active | – | Active | > 500 | inactive | – | inactive | Non-toxic | – | – | Activity (Mus musculus [26]): Non-toxic; Activity (Mus musculus [17]): inactive
OC(/C(=N\Cc1cccnc1)c1ccccc1)c1ccccc1 (configuration not stated) | inactive | – | Active | Active | Active | 20.8 | 30 | – | 30 | 0.57 | inactive | 30 | Active | 11.9 | inactive | 30 | inactive | – | 106 | 100 | minimal effective dose (Mus musculus [25]): 300 mg/kg
COc1ccccc1/C=N/Cc1cccnc1 | inactive | inactive | Active | Active | Active | 11.7 | 30 | inactive | 30 | 15 | Active | 300 | Active | 176 | inactive | 300 | inactive | – | – | – | Activity (Mus musculus [17]): inactive
C(=N\Cc1cccnc1)/c1ccccc1 | inactive | – | inactive | Active | Active | 53 | 30 | inactive | 100 | 2.1 | Active | 100 | inactive | 112 | inactive | 100 | – | – | 62.4 | 100 | minimal effective dose (Mus musculus [22]): 100 mg/kg
COc1cc(/C=N/Cc2cccnc2)cc(OC)c1OC | inactive | – | inactive | inactive | Active | 71.7 | 100 | inactive | 100 | > 10 | Active | – | inactive | > 500 | inactive | – | – | Non-toxic | 50.3 | 100 | Activity (Mus musculus [26]): Non-toxic; minimal effective dose (Mus musculus [22]): 30 mg/kg

— ChEMBL document CHEMBL3044874, “Synthesis and characterization of some heterocyclic schiff bases: potential anticonvulsant agents” (Med Chem Res, 2011)
